Experimental data reported in PubChem BioAssay AID1549 (Sanford-Burnham Center for Chemical Genomics, 2009).
Calls of active or inactive are those of the source. How the calls were made is not given here.

Target: Influenza A virus M2 proton channel (A/TW/4845/1999 H1N1)
Assay: M2 proton channel binding, NMR based, influenza A virus H1N1 strain (AID 1549)
Details: NMR binding screen, M2 protein

Structure (SMILES)	Kd
Cc1ccc(C)n1/N=C1\NC(=O)CS1	> 4 mM (inactive)
Cn1c(=O)n(-c2cccc(Cl)c2)c(=O)n1C	> 4 mM (inactive)
O=C(c1ccc(Cl)s1)N1CCOCC1	> 4 mM (inactive)
c1ccc(CCc2nc(-c3ccncc3)no2)cc1	> 4 mM (inactive)
CCCCCC/C=C\CCCCCCCc1cccc(O)c1C(=O)O	> 4 mM (inactive)
COc1ccc(-c2c(C)n([O-])c(C)c(C)[n+]2=O)cc1	> 4 mM (inactive)
Cc1nc(-c2cccc(C(=O)O)c2)cs1	> 4 mM (inactive)
NC1=NC(=O)/C(=C/c2ccc(O)c(Cl)c2)S1	> 4 mM (inactive)
CC1=NN2C(=N)/C(=C\c3cccs3)C(=O)N=C2S1	> 4 mM (inactive)
CCOC(=O)c1csc(C2COc3ccccc3O2)n1 (stereo not given)	> 4 mM (inactive)
CC(=O)O[C@@H]1CC2C(C)(C)C(=O)[C@@H]3O[C@@H]3[C@]2(C)C2CC[C@]3(C)C(=CC(=O)O[C@H]3c3ccoc3)[C@@]21C (stereo not given in full)	> 4 mM (inactive)
Cc1cc(NC(=O)c2c(F)c(F)c(F)c(F)c2F)no1	> 4 mM (inactive)
O=C(O)c1csc(-c2cccs2)n1	> 4 mM (inactive)
COC(=O)C1=CCCN(C)C1	> 4 mM (inactive)
Cc1cc(C)n(/N=C\c2cccs2)c(=O)c1C(N)=O	> 4 mM (inactive)
Cc1cc2nc3c(=O)[nH]c(=O)nc-3n(CC(O)C(O)C(O)CO)c2cc1C (stereo not given)	> 4 mM (inactive)
COC(=O)c1ccc2snnc2c1	> 4 mM (inactive)
C=C1C2CC[C@@]3(C)[C@H](c4ccoc4)OC(=O)C[C@]13O[C@H]1CC(O)C(C)(C)C(CC(=O)OC)[C@@]21C (stereo not given in full)	> 4 mM (inactive)
COC(=O)C[C@H]1C2(C)CC34OC5(C)O[C@@]6([C@H](OC)C(OC(=O)C(C)C)[C@]7(C)C(/C(=C(/OC)C(C)C)C(=O)O[C@H]7c7ccoc7)[C@@]6(O5)[C@H](OC)[C@@]3(OC)C2OC(C)=O)[C@]14C (stereo not given in full)	> 4 mM (inactive)
CSc1nc2nc(C)cc(=O)n2[nH]1	> 4 mM (inactive)
O=C(O)CSc1cccc2cccnc12	> 4 mM (inactive)
Nc1c(N2CCCC2)cnn(-c2ccccc2)c1=O	> 4 mM (inactive)
NC(=O)Cc1nc(-c2ccc(F)cc2)cs1	> 4 mM (inactive)
Cc1nc(N)sc1C(=O)Nc1nccs1	> 4 mM (inactive)
CC(=O)c1ccc(CC2SC(N)=NC2=O)cc1 (stereo not given)	> 4 mM (inactive)
COc1c2c(cc3occ(-c4ccc5c(c4)OCO5)c(=O)c13)OC(C)(C)C=C2	> 4 mM (inactive)
O=c1nc(N2CCCCC2)nc2n1CCO2	> 4 mM (inactive)

Structure (SMILES)	Kd
O=C1O[C@H](C(O)CO)C(O)=C1O (stereo not given in full)	> 4 mM (inactive)
CC1(O)CC2C(CC1O)C2(C)C (stereo not given)	> 4 mM (inactive)
CC(C(N)=O)N1C(=O)c2ccccc2C1=O (stereo not given)	> 4 mM (inactive)
CC(=O)Oc1c(C)c(C)c2c(c1C)CCC(C)(CCCC(C)CCCC(C)CCCC(C)C)O2 (stereo not given)	> 4 mM (inactive)
CC(=O)Nc1ccc(S(=O)(=O)NC2=NCCS2)cc1	> 4 mM (inactive)
CC(=O)O[C@@H]1C[C@@]2(C)[C@H](c3ccoc3)C[C@H]3O[C@]32[C@]2(C)C(=O)C(O)=C3C(C)(C)C(=O)C=C[C@]3(C)C12 (stereo not given in full)	> 4 mM (inactive)
Clc1ccc(SCCn2cncn2)cc1	> 4 mM (inactive)
COc1nc(C)ccc1-c1noc(-c2ccco2)n1	> 4 mM (inactive)
CC1(C)CCC(C)(C)c2cc(C(=O)O)ccc21	> 4 mM (inactive)
NC(=O)c1cccc2c(=O)oc3ccccc3c12	> 4 mM (inactive)
O=c1ccc(=O)n(CN2CCc3ccccc3C2)[nH]1	> 4 mM (inactive)
CC(C)c1c(O)ccc2c1CCC1[C@@](C)(C=O)CCC[C@]21C (stereo not given in full)	> 4 mM (inactive)
COc1ccc2c(c1)c1n[nH]c(=S)nc1n2C	> 4 mM (inactive)
C[C@H]1O[C@@H](O[C@H]2[C@@H](O)C[C@H](O[C@H]3[C@@H](O)C[C@H](O[C@H]4CC[C@]5(C)C6CC[C@]7(C)[C@@H](C8=CC(=O)OC8)CC[C@]7(O)C6CC[C@@H]5C4)O[C@@H]3C)O[C@@H]2C)C[C@H](O)[C@@H]1O (stereo not given in full)	> 4 mM (inactive)
Cc1cc(O)cc(O)c1C(=O)O	> 4 mM (inactive)
Cn1cnnc1SCCCNC(=O)Nc1ncccn1	> 4 mM (inactive)
O=C(O)C1NCCc2ccccc21 (stereo not given)	> 4 mM (inactive)
O=c1[nH]cc(S(=O)(=O)N2CCc3ccccc32)c(=O)[nH]1	> 4 mM (inactive)
Cc1cc(=O)n2nc(-c3ccccc3)sc2n1	> 4 mM (inactive)
CC(C)CCCC(C)[C@H]1CCC2C3CC[C@H]4CC(=O)CC[C@]4(C)C3CC[C@@]21C (stereo not given in full)	> 4 mM (inactive)
NS(=O)(=O)c1ccc(NC(=O)c2cccs2)cc1	> 4 mM (inactive)
COc1ccccc1CNc1nc2nc(C)cc(=O)n2[nH]1	> 4 mM (inactive)
O=C(O)c1ccc2ccccc2n1	> 4 mM (inactive)
S=C(Nc1ccc2nccnc2c1)N1CCOCC1	> 4 mM (inactive)
Cc1nnc2sc(-c3ccco3)nn12	> 4 mM (inactive)
COc1cc(CNC(=O)CCCC/C=C/C(C)C)ccc1O	> 4 mM (inactive)
CN=C1SC(CC(=O)Nc2ccc(O)cc2)C(=O)N1C (stereo not given)	> 4 mM (inactive)

Structure (SMILES)	Kd
O=C1CS/C(=N/N=C/c2cccs2)N1	> 4 mM (inactive)
CC(=O)NC1=C(N(C)C)C(=O)c2ccccc2C1=O	> 4 mM (inactive)
COc1ccc2c(c1OC)OC[C@@H](c1ccc(OC)c(OC)c1OC)C2	> 4 mM (inactive)
COC(=O)C[C@H]1C(C)(C)C(=O)[C@@H]2CC3=C4CC(=O)O[C@@H](c5ccoc5)[C@]4(C)CCC3C1(C)C2=O (stereo not given in full)	> 4 mM (inactive)
CC(C)NC(=O)Cc1c(O)c2ccccc2[nH]c1=O	> 4 mM (inactive)
CCCS(=O)(=O)N1CCN(c2ccccn2)CC1	> 4 mM (inactive)
O=C(CSc1nnc2ccccn12)N1CCOCC1	> 4 mM (inactive)
O=S1(=O)C=CC(N2CCCCC2)C1 (stereo not given)	> 4 mM (inactive)
Cc1c(CO)cnn1-c1ccccc1	> 4 mM (inactive)
COc1ccc(C)cc1S(=O)(=O)NC1CCCC1	> 4 mM (inactive)
NC(=O)C1CCN(C(=S)c2cccs2)CC1	> 4 mM (inactive)
CS(C)=C1C(=O)NC(=O)N(Cc2ccc(F)cc2)C1=O	> 4 mM (inactive)
Cc1cc2c(=O)n(C)c(SCC(N)=O)nc2s1	> 4 mM (inactive)
CN1CCC2(CC1)CC1CC3C=CC1(CN2)O3 (stereo not given)	> 4 mM (inactive)
COc1ncnc(N)c1[N+](=O)[O-]	> 4 mM (inactive)
NCc1cccc2c1OCCCO2	> 4 mM (inactive)
O=C1CC(=O)N2N=C(c3ccccc3)SC2=N1	> 4 mM (inactive)
CN1CCC(N2CCN(C)CC2)CC1	> 4 mM (inactive)
c1ccc(-n2cnnc2)nc1	> 4 mM (inactive)
O=C1CCCc2c1nc(-c1ccccc1)n2O	> 4 mM (inactive)
Cc1oc(-c2ccccc2)cc1C(N)=O	> 4 mM (inactive)
Cn1c(SCC(N)=O)nnc1-c1cccnc1	> 4 mM (inactive)
Nc1ccc(Cc2ccc(N)cc2)cc1	> 4 mM (inactive)
NC(=O)c1ccc(-c2ccccn2)s1	> 4 mM (inactive)
Cc1nc2nc(Cc3ccccc3)nn2c(C)c1Cl	> 4 mM (inactive)
C=CC(C1=CC(=O)C=CC1=O)c1ccccc1 (stereo not given)	> 4 mM (inactive)
